Marks after values point to notes of the source that are not given here.

Series [1] relates to non-transgenic or wild-type SOD1-expressing fish. In words: axonal and total body length in non-transgenic or wild-type SOD1-expressing fish. Type of series: in vivo. The note with it: zebrafish, average ± s.e.m. As to the method:
Y-axes show motor axon length of non-transgenic (black bar) or SOD1WT-expressing (white bar) zebrafish embryos, injected with either atg-RTK2 (shaded bars, Panel A) or atg-RTK1 morpholino (shaded bars, Panel B). Ctr-RTK2 and ctr-RTK1 were used as controls. Error bars are s.e.m.
To identify disease-modifying genes in ALS in an unbiased way, knockdown screening was performed in the mutant SOD1 zebrafish model (reference 13), using a library of 303 translation blocking morpholinos (atg-mo), of which 58 were targeting genes presumed to be neuronally expressed (according to the NCBI database) and 245 randomly chosen targeting genes. […] The morpholino yielding the highest rescue in two separate experiments was studied further. It targets zebrafish receptor tyrosine kinase 2 (RTK2, also known as epha4b), which has 67% identity and 80% homology to the human orthologue EPHA4. Knockdown of RTK2 in fish expressing mutant SOD1 completely and dose-dependently rescued the motor axonopathy (both axonal length and aberrant branching) caused by three different SOD1 mutations: A4V, G93A and G37R (FIG. 1, Panels A-F; Table 2). […] Receptor tyrosine kinase 1 (RTK1, also known as epha4a), the fish paralogue of RTK2, has 83% identity and 92% homology to human EPHA4. RTK1 knockdown was dose-dependently and equally protective as RTK2 knockdown (FIG. 1, Panel G; Table 4). […]

In series [2] the test system is mutant SOD1-overexpressing fish. Nature of the series: mutant SOD1-induced motor axonopathy in zebrafish embryos (percentage affected embryos, motor axon length). The format is in vivo. The source says: FIG. 1: EphA4 knockdown rescues mutant SOD1-induced motor axonopathy. […] Abnormal branching is indicated with arrowhead. Y-axes show motor axon length of zebrafish embryos expressing wild-type SOD1 (black bar, Panels D-G) or mutant SOD1 (white bar, Panels D-G). Knockdown of RTK2 in SOD1A4V- (Panel D), SOD1G93A- (Panel E) and SOD1G37R- (Panel F) expressing fish was established by co-injection of increasing amounts of atg-RTK2 morpholino (shaded bars). RTK1 expression was inhibited in SOD1A4V-expressing fish by co-injection of atg-RTK1 morpholino (shaded bars, Panel G). Ctr-RTK2 and ctr-RTK1 were used as control. ANOVA and Bonferroni's multiple comparison tests were used for statistical analysis. Comparing axonal length in SOD1A4V fish injected with ctr-RTK2 (n=39) vs. different doses atg-RTK2: 3 ng (n=43, p=0.0059), 4.5 ng (n=37, p=0.0016, Panel D), SOD1G93A: ctr-RTK2 (n=60) vs. atg-RTK2: 1.5 ng (n=55, p=0.015), 3 ng (n=51, p=2.82×10-9), 4.5 ng (n=46, p=2.22×10-15, Panel E), SOD1G37R: ctr-RTK2 (n=37) vs. atg-RTK2: 3 ng (n=25, p=0.027), 4.5 ng (n=36, p=0.0018, Panel F) and SOD1A4V: ctr-RTK1 (n=49) vs. atg-RTK1: 1.5 ng (n=51, p=2.51×10-7), 3 ng (n=64, p=7.99×10-10), 4.5 ng (n=54, p<1×10-20, Panel G). Western blot of SOD1WT or SOD1A4V (1.76 ng) expressing zebrafish embryos (30 hpf), co-injected with either ctr-RTK1 or atg-RTK1 (4.5 ng). Sixty embryos were used per group with actin as the loading control (H). Immunostaining of rtk1 (green) in rhombomeres 3 and 5 and of ephrin-b2 (magenta) in rhombomere 4 in zebrafish embryos injected with either ctr-RTK1 or atg-RTK1 (4.5 ng). RTK1-depleted embryos show disorganized rhombomere boundaries (arrowhead, I, Scale bar 50 μm). Error bars are s.e.m.
FIG. 2: RTK2 knockdown protects motor axons against SOD1^A4V-induced injury. Effect of RTK2 knockdown, established by injection of splice-rtk2 morpholino, on the motor axon length of SOD1^A4V-expressing zebrafish embryos (30 hpf). SOD1^WT-expressing fish and a non-functional five-base pair-mismatch control morpholino (ctr-RTK2) were used as control (Panel A). ANOVA and Bonferroni's multiple comparison tests were used for statistical analysis: SOD1^A4V/ctr-RTK2 (n=56) vs. SOD1^A4V/spl-RTK2 (n=60, 1.79×10^−4). Spl-RTK2 was designed against the exon 2 splice site of the zebrafish RTK2 pre-mRNA and alternatively skipped out exon 2. RT-PCR on non-transgenic fish (lane 1), ctr-RTK2-injected fish (lane 2) and spl-RTK2-injected fish (lane 3) at 30 hpf. Functional RTK2 mRNA, containing exon 2, is indicated by the 818-bp product (upper band) while non-functional RTK2 mRNA, lacking exon 2 is indicated by the 156-bp product (lower band), 60 embryos each group (Panel B). Error bars are s.e.m.
FIG. 12: Pharmacological inhibition of EphA4 receptor signaling protects against mutant SOD1 pathology in vivo. Effect of treatment with Compound 1 (C1, 500 μM) on the motor axon length of zebrafish embryos (30 hpf). DMSO (1/250 dilution) was used as control (Panel A). ANOVA and Bonferroni's multiple comparison tests were used for statistical analysis: SOD1^A4V/C1 (n=68) vs. SOD1^A4V/DMSO (n=76, p=3.54×10^−5). Effect of KYL-peptide (3 mM) treatment of 60-day-old SOD1^G93A rats on disease onset (Panel B) and survival (Panel C). Artificial CSF (ACSF) was used as control. Average disease onset: 133 days (treated, n=21) versus 125 days (control, n=17, T-test p=0.044). Average survival: 148 days (treated, n=21) versus 139 days (controls, n=17, T-test p=0.041). Error bars are s.e.m.
Effect of RTK2 knockdown (established by injection of atg-RTK2 morpholino) on the percentage of affected wild-type SOD1 or mutant SOD1 (A4V, G93A, G37R) zebrafish embryos (30 hpf). Ctr-RTK2 morpholino was used as control. An embryo was considered as affected when it had more than 10% abnormally branched motor axons. Significance of mtSOD1/ctr-RTK2 (4.5 ng) vs. mtSOD1/atg-RTK2 (4.5 ng) was determined by Mann-Whitney test, * p=0.0075, ° p=0.039 and # p=0.0052. […]

“5′-CTGTGAACACAAGCGCAGCCATTGG-′3 (all phosphorodiamidate morpholino (PMO)) [atg-RTK1]” displayed a body length in series [1] of 2.61±0.01 mm. For the same compound, the “% affected fish” value is 38 (24) % in series [2] (Table 4, SOD1A4V fish, morpholino 1.5 ng); 22 (33) % in series [2] (Table 4, SOD1A4V fish, morpholino 3 ng); 8* (26) % in series [2] (Table 4, SOD1A4V fish, morpholino 4.5 ng); 14 (14) % in series [2] (Table 4, SOD1WT fish, morpholino 4.5 ng).

With `Cc1ccc(C)n1-c1ccc(C(=O)O)c(O)c1` [Compound C1], the “% affected fish” value in series [2] (Table 4, SOD1A4V fish, C1 500 μM in the water) is reported as 11° (26) %; in series [2] (Table 4, SOD1WT fish, C1 500 μM in the water), 15 (32) %.

The record behind these values is patent US9187784B2, “EphA4 is a disease modifier in motor neuron disease” (VIB VZW, priority 2011, dated 2015).
